Legend:
PFTK1 = PFTK1 (Homo sapiens, UniProt O94921); experiment: KINOMEscan binding assay; settings: read-out: % Ctrl @ 10000 nM
SLK = SLK (Homo sapiens, UniProt Q9H2G2); experiment: KINOMEscan binding assay; settings: read-out: % Ctrl @ 10000 nM
MEK4 = MEK4 (Homo sapiens, UniProt P45985); experiment: KINOMEscan binding assay; settings: read-out: % Ctrl @ 10000 nM
MST1 = MST1 (Homo sapiens, UniProt Q13043); experiment: KINOMEscan binding assay; settings: read-out: % Ctrl @ 10000 nM
PIM1 = PIM1 (Homo sapiens, UniProt P11309); experiment: KINOMEscan binding assay; settings: read-out: % Ctrl @ 10000 nM
ALK (L1196M) = ALK (L1196M) (Homo sapiens, UniProt Q9UM73, L1196M); experiment: KINOMEscan binding assay; settings: read-out: % Ctrl @ 10000 nM
GAK = GAK (Homo sapiens, UniProt O14976); experiment: KINOMEscan binding assay; settings: read-out: % Ctrl @ 10000 nM
FLT3 (ITD) = experiment: KINOMEscan binding assay
PIK3CA (E545K) = PIK3CA (E545K) (Homo sapiens, UniProt P42336, E545K); experiment: KINOMEscan binding assay; settings: read-out: % Ctrl @ 10000 nM
ABL1 phosphorylated = ABL1 phosphorylated (Homo sapiens, UniProt P00519); experiment: KINOMEscan binding assay; settings: read-out: % Ctrl @ 10000 nM
NEK3 = NEK3 (Homo sapiens, UniProt P51956); experiment: KINOMEscan binding assay; settings: read-out: % Ctrl @ 10000 nM
PIK3CA (H1047Y) = PIK3CA (H1047Y) (Homo sapiens, UniProt P42336, H1047Y); experiment: KINOMEscan binding assay; settings: read-out: % Ctrl @ 10000 nM
non-mutant kinases = experiment: KINOMEscan kinase screening panel, binding capacity and Selectivity Score; settings: 10 μM, 395 non-mutant kinases
Procedure: The assay was carried out according to the established KINOMEscan® technology (DiscoveRx® LeadHunter®, Discovery services, www.discoverx.com). […] Screening “hits” are identified by measuring the amount of kinase captured in test versus control samples by using a quantitative, qPCR method that detects an associated DNA label. For most assays, kinase-tagged T7 phage strains ware grown in parallel in 24-well blocks in an E. coli host derived from the BL21 strain. E. coli were grown to log-phase and infected with T7 phage from a frozen stock (multiplicity of infection=0.4) and incubated with shading at 32° C. until lysis (90-150 minutes). The lysates were centrifuged (6,000×g) and filtered (0.2 μm) to remove cell debris. The remaining kinases were produced in HEK293 cells and subsequently tagged with DMA for qPCR detection. Streptavidin-coated magnetic beads were treated with biotinylated small molecule ligands for 30 minutes at room temperature to generate affinity resins for kinase assays. The liganded beads were blocked with excess biotin and washed with blocking buffer (SeaBlock (Pierce), 1% BSA, 0.05 % Tween 20, 1 mM DTT) to remove unbound ligand and to reduce non-specific phage binding. […] All reactions were performed in polypropylene 384-well plates in a final volume of 0.04 ml. The assay plates were incubated at room temperature with shaking for 1 hour and the affinity beads were washed with wash buffer (1×PBS, 0.05% Tween 20). The beads were then re-suspended in elution buffer (1×PBS, 0.05 % Tween 20, 0.5 μM non-biotinylated affinity ligand) and incubated at room temperature with shaking for 30 minutes. The kinase concentration in the eluates was measured by qPCR.
Results were reported as “% Ctrl”, where lower numbers indicate stronger hits. The calculation of the “% Ctrl” was as follow:
In addition to the binding capacity, the Selectivity Score (or S-score) was calculated (Karaman, M. W. et al. A quantitative analysis of kinase inhibitor selectivity. Nat. Biotechnol. 26, 127-132 (2008). The S-score is a quantitative measure of compound selectivity. It is calculated by dividing the number of kinases that a compound binds to by the total number of distinct kinases tested, excluding mutant variants. S-score−Number of hits/Number of assays
S(35)=(number of non-mutant kinases with % Ctrl<35)/(number of non-mutant kinases tested)
S(10)=(number of non-mutant kinases with % Ctrl<10)/(number of non-mutant kinases tested)
S(1)=(number of non-mutant kinases with % Ctrl<1)/(number of non-mutant kinases tested)
and provides a quantitative method of describing compound selectivity to facilitate comparison of different compounds. The screening concentration was 10 μM.

MET = MET (Homo sapiens, UniProt P08581); experiment: KINOMEscan binding assay; settings: read-out: % Ctrl @ 10000 nM
TRKA = TRKA (Homo sapiens, UniProt P04629); experiment: KINOMEscan binding assay; settings: read-out: % Ctrl @ 10000 nM
WEE1 = WEE1 (Homo sapiens, UniProt P30291); experiment: KINOMEscan binding assay; settings: read-out: % Ctrl @ 10000 nM
PIK3CB = PIK3CB (Homo sapiens, UniProt P42338); experiment: KINOMEscan binding assay; settings: read-out: % Ctrl @ 10000 nM

Sequence of PIK3CA (H1047Y) (P42336 whole entry H1047Y): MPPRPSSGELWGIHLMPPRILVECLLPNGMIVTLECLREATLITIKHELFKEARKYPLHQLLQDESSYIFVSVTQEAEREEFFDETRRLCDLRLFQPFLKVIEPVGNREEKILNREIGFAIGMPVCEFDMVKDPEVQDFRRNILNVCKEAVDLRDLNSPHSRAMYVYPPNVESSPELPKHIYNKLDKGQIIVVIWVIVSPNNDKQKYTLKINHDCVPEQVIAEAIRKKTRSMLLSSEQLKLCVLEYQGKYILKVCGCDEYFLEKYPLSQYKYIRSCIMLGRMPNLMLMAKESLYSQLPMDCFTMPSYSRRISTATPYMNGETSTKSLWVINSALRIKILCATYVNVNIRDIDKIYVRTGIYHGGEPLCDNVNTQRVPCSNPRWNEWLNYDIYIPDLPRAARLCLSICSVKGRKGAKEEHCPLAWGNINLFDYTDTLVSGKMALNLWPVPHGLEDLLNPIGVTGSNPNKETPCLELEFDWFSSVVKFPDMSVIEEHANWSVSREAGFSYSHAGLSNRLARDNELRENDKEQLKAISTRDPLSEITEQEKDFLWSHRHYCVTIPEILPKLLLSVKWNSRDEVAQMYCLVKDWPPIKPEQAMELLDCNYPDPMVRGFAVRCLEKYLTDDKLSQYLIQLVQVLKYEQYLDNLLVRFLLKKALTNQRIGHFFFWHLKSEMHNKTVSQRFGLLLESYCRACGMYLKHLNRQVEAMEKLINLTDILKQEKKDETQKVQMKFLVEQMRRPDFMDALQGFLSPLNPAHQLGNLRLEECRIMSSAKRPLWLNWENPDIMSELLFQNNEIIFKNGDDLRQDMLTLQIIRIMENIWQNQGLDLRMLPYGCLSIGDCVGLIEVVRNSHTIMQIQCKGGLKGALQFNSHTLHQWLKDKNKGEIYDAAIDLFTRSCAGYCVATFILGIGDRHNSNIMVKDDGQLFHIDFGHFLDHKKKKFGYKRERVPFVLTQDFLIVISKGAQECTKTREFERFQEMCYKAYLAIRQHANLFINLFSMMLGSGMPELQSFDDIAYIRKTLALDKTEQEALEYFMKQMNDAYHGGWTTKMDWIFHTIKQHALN
Sequence of ALK (L1196M) (Q9UM73 19-1620 L1196M): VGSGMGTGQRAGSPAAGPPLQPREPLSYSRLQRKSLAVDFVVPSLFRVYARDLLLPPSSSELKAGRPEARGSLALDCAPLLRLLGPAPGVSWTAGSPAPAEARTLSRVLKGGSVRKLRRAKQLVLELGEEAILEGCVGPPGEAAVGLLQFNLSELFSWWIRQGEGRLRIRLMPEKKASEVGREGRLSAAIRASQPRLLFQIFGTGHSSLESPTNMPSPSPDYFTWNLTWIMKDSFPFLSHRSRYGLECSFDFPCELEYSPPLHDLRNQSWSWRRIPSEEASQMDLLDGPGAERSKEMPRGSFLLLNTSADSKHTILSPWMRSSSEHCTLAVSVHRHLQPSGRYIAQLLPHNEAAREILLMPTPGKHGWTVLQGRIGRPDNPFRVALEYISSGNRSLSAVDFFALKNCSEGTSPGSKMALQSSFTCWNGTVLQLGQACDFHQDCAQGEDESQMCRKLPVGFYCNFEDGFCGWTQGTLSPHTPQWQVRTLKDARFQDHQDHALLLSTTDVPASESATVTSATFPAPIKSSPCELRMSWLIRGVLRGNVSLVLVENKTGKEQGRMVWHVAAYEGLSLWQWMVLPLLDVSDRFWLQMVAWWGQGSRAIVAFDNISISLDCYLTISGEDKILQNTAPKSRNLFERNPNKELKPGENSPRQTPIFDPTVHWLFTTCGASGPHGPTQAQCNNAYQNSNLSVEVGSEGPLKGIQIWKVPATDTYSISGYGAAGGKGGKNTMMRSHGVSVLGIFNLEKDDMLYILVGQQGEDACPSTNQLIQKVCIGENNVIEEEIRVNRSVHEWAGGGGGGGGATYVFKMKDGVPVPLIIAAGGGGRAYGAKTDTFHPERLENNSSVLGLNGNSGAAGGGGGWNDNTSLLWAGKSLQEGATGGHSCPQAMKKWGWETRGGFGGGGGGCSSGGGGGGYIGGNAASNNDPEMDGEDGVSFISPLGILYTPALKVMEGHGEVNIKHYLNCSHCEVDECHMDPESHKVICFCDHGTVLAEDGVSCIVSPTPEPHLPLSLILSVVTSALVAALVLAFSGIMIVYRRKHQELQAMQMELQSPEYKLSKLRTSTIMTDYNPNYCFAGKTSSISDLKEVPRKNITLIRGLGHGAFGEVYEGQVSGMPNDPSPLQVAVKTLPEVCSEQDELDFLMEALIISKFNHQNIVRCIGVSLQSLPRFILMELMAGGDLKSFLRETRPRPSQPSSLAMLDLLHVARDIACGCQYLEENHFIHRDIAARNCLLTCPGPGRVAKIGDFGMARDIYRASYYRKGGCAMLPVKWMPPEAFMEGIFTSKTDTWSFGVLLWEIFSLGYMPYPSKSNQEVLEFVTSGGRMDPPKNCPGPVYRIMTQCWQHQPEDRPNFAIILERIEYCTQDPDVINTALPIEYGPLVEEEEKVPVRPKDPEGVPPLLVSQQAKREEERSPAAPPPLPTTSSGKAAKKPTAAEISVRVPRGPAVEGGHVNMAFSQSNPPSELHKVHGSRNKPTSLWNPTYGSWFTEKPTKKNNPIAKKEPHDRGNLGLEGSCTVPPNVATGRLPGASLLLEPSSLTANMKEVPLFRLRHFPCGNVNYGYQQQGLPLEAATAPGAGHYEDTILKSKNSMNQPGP
Sequence of NEK3 (P51956 whole entry): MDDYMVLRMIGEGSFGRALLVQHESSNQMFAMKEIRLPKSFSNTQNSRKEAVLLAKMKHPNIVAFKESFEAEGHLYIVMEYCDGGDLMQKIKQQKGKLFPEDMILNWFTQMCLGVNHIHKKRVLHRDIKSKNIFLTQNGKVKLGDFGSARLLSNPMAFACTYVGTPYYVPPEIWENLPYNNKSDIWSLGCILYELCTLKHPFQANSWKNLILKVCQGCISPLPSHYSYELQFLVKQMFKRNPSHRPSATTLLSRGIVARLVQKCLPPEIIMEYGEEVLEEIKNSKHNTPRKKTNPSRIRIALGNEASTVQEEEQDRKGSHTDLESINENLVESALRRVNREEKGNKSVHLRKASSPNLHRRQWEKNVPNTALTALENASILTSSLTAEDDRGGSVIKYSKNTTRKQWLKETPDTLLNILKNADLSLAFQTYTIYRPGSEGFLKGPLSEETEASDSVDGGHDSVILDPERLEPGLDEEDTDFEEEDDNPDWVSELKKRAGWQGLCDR
Sequence of PIM1 (P11309 whole entry): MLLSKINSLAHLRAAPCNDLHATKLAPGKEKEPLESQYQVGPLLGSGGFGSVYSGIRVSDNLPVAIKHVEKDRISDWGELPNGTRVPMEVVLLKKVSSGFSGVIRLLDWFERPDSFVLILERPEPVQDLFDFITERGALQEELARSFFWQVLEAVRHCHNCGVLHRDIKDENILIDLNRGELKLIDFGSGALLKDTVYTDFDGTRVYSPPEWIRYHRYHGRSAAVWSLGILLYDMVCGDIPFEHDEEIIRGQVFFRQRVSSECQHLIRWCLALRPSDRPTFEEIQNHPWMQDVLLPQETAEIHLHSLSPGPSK
Sequence of PIK3CA (E545K) (P42336 whole entry E545K): as the sequence (P42336 whole entry H1047Y) above, with E545K, Y1047H counted along it
Sequence of GAK (O14976 whole entry): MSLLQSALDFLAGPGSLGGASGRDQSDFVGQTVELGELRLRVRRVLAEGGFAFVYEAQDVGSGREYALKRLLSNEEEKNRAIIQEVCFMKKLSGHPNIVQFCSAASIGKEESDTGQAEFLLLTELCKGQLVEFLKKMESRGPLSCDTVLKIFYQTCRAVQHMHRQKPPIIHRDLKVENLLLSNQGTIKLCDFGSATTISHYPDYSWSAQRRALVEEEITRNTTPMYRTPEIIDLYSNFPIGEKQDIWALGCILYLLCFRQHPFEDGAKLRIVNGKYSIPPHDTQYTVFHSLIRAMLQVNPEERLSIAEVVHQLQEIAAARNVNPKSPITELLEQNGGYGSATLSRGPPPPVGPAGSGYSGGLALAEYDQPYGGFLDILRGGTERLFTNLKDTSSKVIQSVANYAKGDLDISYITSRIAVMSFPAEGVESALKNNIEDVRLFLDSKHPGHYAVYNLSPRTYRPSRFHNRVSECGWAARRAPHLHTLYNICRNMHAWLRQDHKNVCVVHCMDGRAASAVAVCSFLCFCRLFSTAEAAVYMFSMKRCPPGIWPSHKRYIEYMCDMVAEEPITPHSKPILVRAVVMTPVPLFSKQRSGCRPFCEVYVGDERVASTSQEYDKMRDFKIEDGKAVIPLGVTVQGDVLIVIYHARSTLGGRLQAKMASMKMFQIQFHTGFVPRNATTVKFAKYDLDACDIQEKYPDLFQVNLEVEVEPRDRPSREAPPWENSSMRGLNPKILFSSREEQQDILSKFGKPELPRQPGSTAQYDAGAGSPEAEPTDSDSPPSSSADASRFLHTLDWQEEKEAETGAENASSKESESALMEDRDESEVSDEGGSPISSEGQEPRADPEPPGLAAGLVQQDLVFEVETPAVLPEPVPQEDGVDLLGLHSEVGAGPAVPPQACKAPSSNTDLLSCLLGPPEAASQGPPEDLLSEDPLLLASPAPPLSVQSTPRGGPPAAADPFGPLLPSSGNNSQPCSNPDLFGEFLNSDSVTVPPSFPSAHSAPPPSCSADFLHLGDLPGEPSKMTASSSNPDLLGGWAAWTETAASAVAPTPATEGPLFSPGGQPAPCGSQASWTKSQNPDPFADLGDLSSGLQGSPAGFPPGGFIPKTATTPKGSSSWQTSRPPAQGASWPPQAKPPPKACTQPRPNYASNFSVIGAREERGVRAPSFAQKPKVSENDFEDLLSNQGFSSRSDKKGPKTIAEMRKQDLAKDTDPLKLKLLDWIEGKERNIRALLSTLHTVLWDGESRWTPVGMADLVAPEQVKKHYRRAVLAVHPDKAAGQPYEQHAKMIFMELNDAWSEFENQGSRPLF

SMILES	remaining binding at 10 µM (PFTK1) [%]	remaining binding at 10 µM (SLK) [%]	remaining binding at 10 µM (MEK4) [%]	remaining binding at 10 µM (MST1) [%]	remaining binding at 10 µM (PIM1) [%]	remaining binding at 10 µM (ALK (L1196M)) [%]	remaining binding at 10 µM (GAK) [%]	remaining binding at 10 µM (PIK3CA (E545K)) [%]	remaining binding at 10 µM (ABL1 phosphorylated) [%]	remaining binding at 10 µM (NEK3) [%]	remaining binding at 10 µM (PIK3CA (H1047Y)) [%]	remaining binding at 10 µM (MET) [%]	remaining binding at 10 µM (TRKA) [%]	remaining binding at 10 µM (WEE1) [%]	remaining binding at 10 µM (PIK3CB) [%]	also measured
Nc1ncc(-c2nc3ccccc3o2)c(-c2ccncc2)n1 [Comparative Compound 324, 5-(1,3-benzoxazol-2-yl)-4-(pyridine-4-yl)pyrimidin-2-amine]	96	63	70	92	98	100	87	82	98	69	72	91	77	100	100	% Ctrl @ 10000 nM (FLT3 (ITD)): 85 % Ctrl; Number of Hits S (1) (non-mutant kinases; % Ctrl<1): 0; S-score S (1) (non-mutant kinases; % Ctrl<1): 0; Number of Hits S (10) (non-mutant kinases; % Ctrl<10): 4; S-score S (10) (non-mutant kinases; % Ctrl<10): 0.01; Number of Hits S (35) (non-mutant kinases; % Ctrl<35): 8; S-score S (35) (non-mutant kinases; % Ctrl<35): 0.02
CNc1c(C(N)=O)c2ccccn2c1C(=O)c1ccc(F)cc1 [Compound A, 2-methyl-amino-3-[(4-fluorophenyl)carbonyl]indolizine-1-carboxamide]	77	100	43	84	92	100	10	77	51	66	80	100	86	94	100	
